In patent US12514805B2, “Composition for suppressing skin irritation or inhibiting sebum secretion” (AMOREPACIFIC CORPORATION, priority 2022, dated 2026):

Assays:
[1] = system: SREBP1; test: Genetic analysis of cholesterol/fatty acid transcription factors in sebaceous gland cells: SREBP1; type: cell-based, human; conditions: primary sebocytes, cultured 2 days, RT-PCR, FIG. 4
Description: (§1) Primary sebocyte and human sebocyte complete medium were purchased from Celprogen and used. The sebaceous gland cells were dispensed in a 60 mm cell culture dish at a density of 1.25×10^4 cells/dish, and then cultured in a CO2 incubator under the condition of 37° C. and 5% CO2 at about 80% confluency. Thereafter, 0 μM, 1 μM, and 10 μM of the compound of Chemical Formula 1 (Seletinoid G) were treated with the cells, respectively, and the cells were cultured for 2 days, and then changes in transcription factors related to sebum biosynthesis were confirmed.
(§2) The cells were treated with the material of Example 3, and then, cultured for 2 days, and then, the cell growth medium was removed. After that, 1 ml of Trizol (Invitrogen) was added to the cells, and RNA was isolated from the cells according to the RNA isolation method (Invitrogen). The RNA was quantified using a UV detector (HEWLETT PACKARD) at 260 nm and subject to RT-PCR (reverse transcription-polymerase chain reaction).
(§3) Taqman probes were used for genetic analysis of SREBP1(Hs02561944_s1), SREBP2(Hs01081781_m1), fatty acid synthase(FAS: Hs01005622_m1), Acetyl-CoA Carboxylase(ACACA: Hs01046047_m1) for each sample, and normalization was performed with respect to the complementary gene RPL13A (Hs04194366_g1), and the result is shown in FIG. 4.

[2] = system: SREBP2; test: Genetic analysis of cholesterol/fatty acid transcription factors in sebaceous gland cells: SREBP2; type: cell-based, human; conditions: primary sebocytes, cultured 2 days, RT-PCR, FIG. 4
Description: as §1, §2, §3

[3] = system: fatty acid synthase (FAS); test: Genetic analysis of cholesterol/fatty acid transcription factors in sebaceous gland cells: FAS; type: cell-based, human; conditions: primary sebocytes, cultured 2 days, RT-PCR, FIG. 4
Description: as §1, §2, §3

[4] = system: Acetyl-CoA Carboxylase (ACACA); test: Genetic analysis of cholesterol/fatty acid transcription factors in sebaceous gland cells: ACACA; type: cell-based, human; conditions: primary sebocytes, cultured 2 days, RT-PCR, FIG. 4
Description: as §1, §2, §3

[5] = system: SREBP1, SPERBP2, FAS, and ACACA; test: Comparison of retinoic acid signal transduction pathway modifiers: sebum-related gene expression in sebaceous gland cells; type: cell-based, human; conditions: for effect on sebum-related gene expression (SREBP1, SPERBP2, FAS, ACACA): sebaceous gland cells treated with 1 μM and 10 μM of each material, FIG. 5
Description: Primary sebocyte and human sebocyte complete medium were purchased from Celprogen and used.
After that, 1 ml of Trizol (Invitrogen) was added to the cells, and RNA was isolated from the cells according to the RNA isolation method (Invitrogen). The RNA was quantified using a UV detector (HEWLETT PACKARD) at 260 nm and subject to RT-PCR (reverse transcription-polymerase chain reaction).
as §3

[6] = system: sebaceous gland cells; test: Cytotoxicity in sebaceous gland cells during the comparison of Example 5; type: cell-based, human; conditions: 10 μM
[7] = system: retinoic acid receptor (RAR); conditions: from paper of the Society of Cosmetic Scientists of Korea (2003); cited from earlier work

**Q.** For O=C(/C=C/c1ccc2c(c1)OCO2)OCc1cc(=O)c(O)co1 [Seletinoid G, (5-hydroxy-4-oxopyran-2-yl)methyl (E)-3-(1,3-benzodioxol-5-yl)prop-2-enoate], which “expression level of SREBP1 reduced by” value ([1]; 1 μM) is on record?
**A.** about 40%

**Q.** And the “expression level of SREBP1 reduced by” value ([1]; 10 μM)?
**A.** about 60%

**Q.** What about the “expression level of SPERBP2 reduced by” value ([2]; 1 μM) of the same compound?
**A.** about 40%

**Q.** What about the “expression level of SPERBP2 reduced by” value ([2]; 10 μM) of the same compound?
**A.** ~55%

**Q.** And the “expression level of FAS reduced by” value ([3]; 1 μM)?
**A.** ~30%

**Q.** What about the “expression level of FAS reduced by” value ([3]; 10 μM) of the same compound?
**A.** ~45%

**Q.** And the “expression level of ACACA reduced by” value ([4]; 1 μM)?
**A.** ~30%

**Q.** And the “expression level of ACACA reduced by” value ([4]; 10 μM)?
**A.** about 60%

**Q.** And the “effect on sebum-related gene expression (SREBP1, SPERBP2, FAS, ACACA)” value (“effect on sebum-related gene expression” below) [5]?
**A.** effect of suppressing sebum-related gene expression

**Q.** And the “reduction of the expression level of the transcription factors (SREBP1a, SPERBP2, FAS, ACACA)” value ([5]; sebaceous gland cells, 10 μM)?
**A.** more than 60%

**Q.** And the cytotoxicity [6]?
**A.** without causing cytotoxicity

**Q.** What about the “binding to retinoic acid receptor (specificity)” value [7] of the same compound?
**A.** specifically binds to RARγ

**Q.** With CC1=C(/C=C/C(C)=C/C=C/C(C)=C/C(=O)O)C(C)(C)CCC1 [retinoic acid, reference compound] as the compound, how does the cytotoxicity [6] read?
**A.** some cytotoxicity

**Q.** For Clc1cccc(C(c2ccc3[nH]cnc3c2)n2ccnc2)c1 (stereo not drawn) [liarozole, reference compound], which “effect on sebum-related gene expression” value [5] is on record?
**A.** did not show a significant difference

**Q.** Which “effect on sebum-related gene expression” value [5] does the source give for CC1=C(/C=C/C(C)=C/C=C/C(C)=C/C(=O)Nc2ccc(O)cc2)C(C)(C)CCC1 [fenretinide, reference compound] here?
**A.** effect of suppressing sebum-related gene expression
